Legend:
Assay type in all cases: biochemical
MMP-9 = MMP-9 (Homo sapiens, UniProt P14780); experiment: MMP-9 inhibition (thiopeptide or fluorescent peptide substrate)
Method: (§1) These standard pharmacological test procedures are based on the cleavage of a thiopeptide substrates such as Ac-Pro-Leu-Gly(2-mercapto-4-methyl-pentanoyl)-Leu-Gly-OEt by the matrix metalloproteinases MMP-1, MMP-13 (collagenases) or MMP-9 (gelatinase), which results in the release of a substrate product that reacts calorimetrically with DTNB (5,5′-dithiobis(2-nitro-benzoic acid)). The enzyme activity is measured by the rate of the color increase. The thiopeptide substrate is made up fresh as a 20 mM stock in 100% DMSO and the DTNB is dissolved in 100% DMSO as a 100 mM stock and stored in the dark at room temperature. […] The buffer, enzyme, vehicle or inhibitor, and DTNB/substrate are added in this order to a 96 well plate (total reaction volume of 200 μl) and the increase in color is monitored spectrophotometrically for 5 minutes at 405 nm on a plate reader and the increase in color over time is plotted as a linear line.
(§2) Alternatively, a fluorescent peptide substrate is used. […] Upon cleavage of the substrate by an MMP, the fluorescence that is generated is quantitated on the fluorescence plate reader. […] The reaction is read (excitation 340 nm, emission 444 nm) for 10 min. and the increase in fluorescence over time is plotted as a linear line.
(§3) For either the thiopeptide or fluorescent peptide test procedures, the slope of the line is calculated and represents the reaction rate. […]

MMP-1 = molecular target: T1, MMP-1 (Homo sapiens, UniProt P03956); experiment: MMP-1 inhibition (thiopeptide or fluorescent peptide substrate)
T1 sequence (P03956 100-469): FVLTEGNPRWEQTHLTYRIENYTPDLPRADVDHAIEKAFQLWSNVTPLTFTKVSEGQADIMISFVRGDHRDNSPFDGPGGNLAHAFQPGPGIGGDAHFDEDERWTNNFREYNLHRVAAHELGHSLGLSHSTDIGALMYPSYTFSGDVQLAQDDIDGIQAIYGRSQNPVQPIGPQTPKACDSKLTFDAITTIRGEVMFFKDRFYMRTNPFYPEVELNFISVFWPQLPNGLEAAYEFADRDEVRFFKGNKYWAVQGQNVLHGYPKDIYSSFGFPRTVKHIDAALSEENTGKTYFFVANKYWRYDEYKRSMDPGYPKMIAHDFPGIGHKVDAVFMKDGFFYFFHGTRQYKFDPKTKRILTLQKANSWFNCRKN
Method: as §1, §2, §3

MMP-13 = MMP-13 (Homo sapiens, UniProt P45452); experiment: MMP-13 inhibition (thiopeptide or fluorescent peptide substrate)
Method: as §1, §2, §3

TACE = TACE (Homo sapiens, UniProt P78536); experiment: TACE inhibition (fluorescent peptidyl substrate)
Chain of TACE (P78536 215-824): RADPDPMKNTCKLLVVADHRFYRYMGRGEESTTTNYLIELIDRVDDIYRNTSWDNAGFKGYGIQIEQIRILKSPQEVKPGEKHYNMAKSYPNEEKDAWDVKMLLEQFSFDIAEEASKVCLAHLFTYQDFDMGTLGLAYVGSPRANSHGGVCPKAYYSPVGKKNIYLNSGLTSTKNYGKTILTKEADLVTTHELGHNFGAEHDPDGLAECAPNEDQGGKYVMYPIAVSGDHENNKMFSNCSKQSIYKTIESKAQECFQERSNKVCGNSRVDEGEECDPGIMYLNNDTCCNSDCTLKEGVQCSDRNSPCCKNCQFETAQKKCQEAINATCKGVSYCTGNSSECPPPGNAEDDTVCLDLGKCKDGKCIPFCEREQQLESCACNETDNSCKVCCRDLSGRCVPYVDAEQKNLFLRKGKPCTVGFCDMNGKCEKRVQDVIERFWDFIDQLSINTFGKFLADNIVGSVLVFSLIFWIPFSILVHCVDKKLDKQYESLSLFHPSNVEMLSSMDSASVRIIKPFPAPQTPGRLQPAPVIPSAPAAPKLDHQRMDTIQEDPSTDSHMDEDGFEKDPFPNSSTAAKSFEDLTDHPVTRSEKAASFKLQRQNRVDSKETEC
Method: Using 96-well black microtiter plates, each well receives a solution composed of 10 μL TACE (final concentration 1 μg/mL), 70 μL Tris buffer, pH 7.4 containing 10% glycerol (final concentration 10 mM), and 10 μL of test compound solution in DMSO (final concentration 1 μM, DMSO concentration <1%) and incubated for 10 minutes at room temperature. The reaction is initiated by addition of a fluorescent peptidyl substrate (final concentration 100 μM) to each well and then shaking on a shaker for 5 sec.
The reaction is read (excitation 340 nm, emission 420 nm) for 10 min. and the increase in fluorescence over time is plotted as a linear line. The slope of the line is calculated and represents the reaction rate.
The linearity of the reaction rate is confirmed (r^2>0.85). The mean (x±sem) of the control rate is calculated and compared for statistical significance (p<0.05) with drug-treated rates using Dunnett's multiple comparison test. Dose-response relationships can be generate using multiple doses of drug and IC50 values with 95% CI are estimated using linear regression.

Chain of MMP-9 (P14780 94-707): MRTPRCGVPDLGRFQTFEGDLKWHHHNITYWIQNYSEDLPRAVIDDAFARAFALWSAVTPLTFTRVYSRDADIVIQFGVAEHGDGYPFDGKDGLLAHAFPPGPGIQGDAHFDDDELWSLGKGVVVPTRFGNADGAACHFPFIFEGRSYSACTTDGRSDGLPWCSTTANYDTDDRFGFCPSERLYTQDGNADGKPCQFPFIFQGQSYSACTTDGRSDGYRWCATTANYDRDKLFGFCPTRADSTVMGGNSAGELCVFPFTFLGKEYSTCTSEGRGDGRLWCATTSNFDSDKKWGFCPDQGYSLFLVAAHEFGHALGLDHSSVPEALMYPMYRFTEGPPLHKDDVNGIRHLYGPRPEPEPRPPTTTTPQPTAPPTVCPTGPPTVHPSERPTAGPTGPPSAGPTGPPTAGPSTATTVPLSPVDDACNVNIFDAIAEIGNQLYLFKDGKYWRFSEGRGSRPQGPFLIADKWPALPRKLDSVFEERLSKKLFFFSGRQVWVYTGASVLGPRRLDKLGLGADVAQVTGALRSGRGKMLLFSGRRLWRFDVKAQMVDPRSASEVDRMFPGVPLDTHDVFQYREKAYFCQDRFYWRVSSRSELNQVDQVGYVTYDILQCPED

Row | IC50 (MMP-9) [nM] | IC50 (MMP-1) [nM] | IC50 (MMP-13) [nM] | IC50 (TACE) [nM] | SMILES
1 | 607 | ~10000 | 478 | 11 | CC#CCOc1ccc(S(=O)(=O)N(C)c2c(C(=O)NO)cc(OC)nc2OC)cc1 [Example 33, 3-[Methyl-(4-but-2-ynyloxy-benzenesulfonyl)-animo]-N-hydroxy-2,6-dimethoxy-isonicotinamide]
2 |  |  |  | 44 | CC#CCOc1ccc(S(=O)(=O)Nc2c(C(=O)NO)cc(OC)nc2OC)cc1 [Example 35, 3-(4-But-2-ynyloxy-benzenesulfonylamino)-N-hydroxy-2,6-dimethoxy-isonicotinamide]

From US20020188132A1, “Heteroaryl acetylenic sulfonamide and phosphinic acid amide hydroxamic acid TACE inhibitors” (priority 1999, published 2002)
